From patent US11439622B2 (OXFORD UNIVERSITY INNOVATION LIMITED, priority 2015, dated 2022)

Assays:
Type in all cases: biochemical
[1] = target: VIM-2 (Veronese metallo-β-lactamase-2) (Escherichia coli, UniProt Q5U7L7); test: Enzyme inhibition assay, VIM-2; conditions: for IC50: read-out: pIC50 VIM-2 (converted)
Description: (§1) The biological activity of the compounds of the present invention was tested using standard assay protocols.^7 The following representative enzymes NDM-1 (New Delhi metallo-β-lactamase-1), IMP-1 (Imipenemase-1) and VIM-2 (Veronese metallo-β-lactamase-2) were selected from different clinically relevant B1 metallo-β-lactamases.

IMP-1 (Imipenemase-1) = IMP-1 (Imipenemase-1) (Serratia marcescens, UniProt P52699); test: Enzyme inhibition assay, IMP-1; conditions: for IC50: read-out: pIC50 IMP-1 (converted)
Description: as §1

[2] = target: NDM-1 (New Delhi metallo-β-lactamase-1) (Klebsiella pneumoniae, UniProt C7C422); test: Enzyme inhibition assay, NDM-1; conditions: for IC50: read-out: pIC50 NDM-1 (converted)
Description: as §1

Sequence of IMP-1 (Imipenemase-1) (P52699 19-246, looked up, species assumed): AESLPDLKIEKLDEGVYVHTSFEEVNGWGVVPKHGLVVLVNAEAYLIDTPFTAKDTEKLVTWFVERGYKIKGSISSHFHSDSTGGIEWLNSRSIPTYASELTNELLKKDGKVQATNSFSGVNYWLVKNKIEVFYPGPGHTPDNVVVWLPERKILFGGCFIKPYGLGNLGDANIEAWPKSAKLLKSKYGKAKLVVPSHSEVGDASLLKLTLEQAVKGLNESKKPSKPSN
Sequence of NDM-1 (New Delhi metallo-β-lactamase-1) (C7C422 29-270, looked up, species assumed): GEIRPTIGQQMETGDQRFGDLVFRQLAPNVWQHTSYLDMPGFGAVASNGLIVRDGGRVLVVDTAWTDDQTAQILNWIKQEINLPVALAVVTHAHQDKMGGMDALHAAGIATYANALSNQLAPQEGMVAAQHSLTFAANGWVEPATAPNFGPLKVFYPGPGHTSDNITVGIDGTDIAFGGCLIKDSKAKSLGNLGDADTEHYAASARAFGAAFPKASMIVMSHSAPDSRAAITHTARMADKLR

COc1ccccc1-c1c(C(=O)O)[nH]c2c(C)cccc12 [Example 20, 3-(2-methoxyphenyl)-7-methyl-1H-indole-2-carboxylic acid]
IC50 [1]: 200 nM
IC50 (IMP-1 (Imipenemase-1)): 79400 nM
IC50 [2]: 126 nM

Cc1cccc2c(-c3ccc(Br)cc3)c(C(=O)O)[nH]c12 [Example 10, 3-(4-bromophenyl)-7-methyl-1H-indole-2-carboxylic acid]
IC50 [1]: 200 nM
IC50 (IMP-1 (Imipenemase-1)): 7940 nM
IC50 [2]: 25.1 nM

CC(C)c1cccc2c(-c3ccc(S(=O)(=O)N(C)C)cc3)c(C(=O)Nc3ccccc3)[nH]c12 [Example 127, 3-(4-(N,N-dimethylsulfamoyl)phenyl)-7-isopropyl-N-phenyl-1H-indole-2-carboxamide]
pIC50 VIM-2 [1]: N.I.
pIC50 IMP-1 (IMP-1 (Imipenemase-1)): N.I.
IC50 [2]: 398 nM

Cc1c(Oc2ccccc2)ccc2c(-c3ccc(C(=O)N(C)C)cc3)c(C(=O)O)[nH]c12 [Example 86, 3-(4-(dimethylcarbamoyl)phenyl)-7-methyl-6-phenoxy-1H-indole-2-carboxylic acid]
IC50 [1]: 575 nM
IC50 (IMP-1 (Imipenemase-1)): 646 nM
IC50 [2]: 7.41 nM

Cc1cccc2c(-c3cc(Cl)cc(Cl)c3)c(C(=O)O)[nH]c12 [Example 3, 3-(3,5-dichlorophenyl)-7-methyl-1H-indole-2-carboxylicacid]
IC50 [1]: < 5.01 nM
IC50 (IMP-1 (Imipenemase-1)): 5010 nM
IC50 [2]: 39.8 nM

Cc1cccc2c(-c3cccc(S(N)(=O)=O)c3)c(C(=O)O)[nH]c12 [Example 14, 7-methyl-3-(3-sulfamoylphenyl)-1H-indole-2-carboxylic acid]
IC50 [1]: 794 nM
IC50 [2]: 50.1 nM

CC(C)c1cccc2c(-c3ccc4[nH]ncc4c3)c(C(=O)O)[nH]c12 [Example 75, 3-(1H-indazol-5-yl)-7-isopropyl-1H-indole-2-carboxylic acid]
IC50 [1]: 10 nM
IC50 (IMP-1 (Imipenemase-1)): 25.1 nM
IC50 [2]: 2 nM

Cc1cccc2c(-c3ccc4[nH]ncc4c3)c(C(=O)O)[nH]c12 [Example 19, 3-(1H-indazol-5-yl)-7-methyl-1H-indole-2-carboxylic acid]
IC50 [1]: 100 nM
IC50 (IMP-1 (Imipenemase-1)): 5010 nM
IC50 [2]: 31.6 nM

COc1cccc(-c2c(C(=O)O)[nH]c3c(C(C)C)cccc23)c1OC [Example 77, 3-(2,3-dimethoxyphenyl)-7-isopropyl-1H-indole-2-carboxylic acid]
IC50 [1]: 6.31 nM
IC50 (IMP-1 (Imipenemase-1)): 12600 nM
IC50 [2]: 200 nM

CC(C)c1cccc2c(-c3ccc(Cn4cncn4)cc3)c(C(=O)O)[nH]c12 [Example 80, 3-(4-((1H-1,2,4-triazol-1-yl)methyl)phenyl)-7-isopropyl-1H-indole-2-carboxylic acid]
IC50 [1]: 10 nM
IC50 (IMP-1 (Imipenemase-1)): 20 nM
IC50 [2]: 0.631 nM

Cc1cccc2c(-c3ccccc3C#N)c(C(=O)O)[nH]c12 [Example 28, 3-(2-cyanophenyl)-7-methyl-1H-indole-2-carboxylic acid]
IC50 [1]: 316 nM
IC50 (IMP-1 (Imipenemase-1)): 25100 nM
IC50 [2]: 63.1 nM

Cc1cccc2c(-c3ccc(Cn4cccn4)cc3)c(C(=O)O)[nH]c12 [Example 34, 3-(4-((1H-pyrazol-1-yl)methyl)phenyl)-7-methyl-1H-indole-2-carboxylicacid]
IC50 [1]: 200 nM
IC50 (IMP-1 (Imipenemase-1)): 50.1 nM
IC50 [2]: 10000 nM

CC(C)c1cccc2c(-c3ccc(S(=O)(=O)N(C)C)cc3)c(C(=O)Nc3nccs3)[nH]c12 [Example 124, 3-(4-(N,N-dimethylsulfamoyl)phenyl)-7-isopropyl-N-(thiazol-2-yl)-1H-indole-2-carboxamide]
pIC50 VIM-2 [1]: N.I.
pIC50 IMP-1 (IMP-1 (Imipenemase-1)): N.I.
pIC50 NDM-1 [2]: N.I.

Cc1cccc2c(-c3ccc(OC(F)(F)F)cc3)c(C(=O)O)[nH]c12 [Example 2, 7-methyl-3-(4-(trifluoromethoxy)phenyl)-1H-indole-2-carboxylic acid]
IC50 [1]: 398 nM
IC50 (IMP-1 (Imipenemase-1)): 7940 nM
IC50 [2]: 50.1 nM

CCCc1cccc2c(-c3ccc(F)cc3)c(C(=O)O)[nH]c12 [Example 52, 3-(4-fluorophenyl)-7-propyl-1H-indole-2-carboxylic acid]
IC50 [1]: 316 nM
IC50 (IMP-1 (Imipenemase-1)): 316 nM
IC50 [2]: 20 nM

Cc1ccc2c(-c3ccc(F)cc3)c(C(=O)O)[nH]c2c1C [Example 56, 3-(4-fluorophenyl)-6,7-dimethyl-1H-indole-2-carboxylic acid]
IC50 [1]: 398 nM
IC50 (IMP-1 (Imipenemase-1)): 7940 nM
IC50 [2]: 31.6 nM

O=C(O)c1[nH]c2c(F)cccc2c1-c1ccc(F)cc1 [Example 112, 7-fluoro-3-(4-fluorophenyl)-1H-indole-2-carboxylic acid]
IC50 [1]: 7940 nM
IC50 [2]: 1580 nM

O=C(O)c1[nH]c2c(C3CC3)cccc2c1-c1ccc(F)cc1 [Example 106, 7-cyclopropyl-3-(4-fluorophenyl)-1H-indole-2-carboxylic acid]
IC50 [1]: 50.1 nM
IC50 (IMP-1 (Imipenemase-1)): 501 nM
IC50 [2]: 12.6 nM

Cc1cccc2c(-c3ccccc3Cl)c(C(=O)O)[nH]c12 [Example 39, 3-(2-chlorophenyl)-7-methyl-1H-indole-2-carboxylic acid]
IC50 [1]: 126 nM
IC50 [2]: 126 nM

Cc1cc(C)cc(-c2c(C(=O)O)[nH]c3c(C)cccc23)c1 [Example 38, 3-(3,5-dimethylphenyl)-7-methyl-1H-indole-2-carboxylic acid]
IC50 [1]: 158 nM
IC50 [2]: 39.8 nM

CNC(=O)c1[nH]c2c(C(C)C)cccc2c1-c1ccc(S(=O)(=O)N(C)C)cc1 [Example 122, 3-(4-(N,N-dimethylsulfamoyl)phenyl)-7-isopropyl-N-methyl-1H-indole-2-carboxamide]
IC50 [1]: > 20000 nM
IC50 (IMP-1 (Imipenemase-1)): > 20000 nM

Cc1ccc2[nH]c(C(=O)O)c(-c3ccc(F)cc3)c2c1 [Example 121, 3-(4-fluorophenyl)-5-methyl-1H-indole-2-carboxylic acid]
IC50 [1]: 39800 nM
IC50 [2]: 6310 nM

O=C(O)c1[nH]c2c(C(F)(F)F)cccc2c1-c1ccc(F)cc1 [Example 51, 3-(4-fluorophenyl)-7-(trifluoromethyl)-1H-indole-2-carboxylic acid]
IC50 (IMP-1 (Imipenemase-1)): 2000 nM
IC50 [2]: 251 nM

Cc1cccc2c(C3CCNCC3)c(C(=O)O)[nH]c12 [Example 118, 7-methyl-3-(piperidin-4-yl)-1H-indole-2-carboxylic acid]
IC50 (IMP-1 (Imipenemase-1)): > 100000 nM
IC50 [2]: 15800 nM

CNC(=O)c1ccc(-c2c(C(=O)O)[nH]c3c(C(C)C)cccc23)cc1 [Example 87, 7-isopropyl-3-(4-(methylcarbamoyl)phenyl)-1H-indole-2-carboxylic acid]
IC50 (IMP-1 (Imipenemase-1)): 77.6 nM
IC50 [2]: 12.6 nM

CC(C)c1cccc2c(-c3ccc(N4CCOCC4)nc3)c(C(=O)O)[nH]c12 [Example 98, 7-isopropyl-3-(6-morpholinopyridin-3-yl)-1H-indole-2-carboxylic acid]
IC50 (IMP-1 (Imipenemase-1)): 219 nM
IC50 [2]: 6.76 nM

CC(C)c1cccc2c(-c3ccc(CNS(C)(=O)=O)cc3)c(C(=O)O)[nH]c12 [Example 96, 7-isopropyl-3-(4-(methylsulfonamidomethyl)phenyl)-1H-indole-2-carboxylic acid]
IC50 (IMP-1 (Imipenemase-1)): 7.76 nM
IC50 [2]: 3.98 nM

CC(C)c1cccc2c(-c3ccc(Cn4cnnn4)cc3)c(C(=O)O)[nH]c12 [Example 100, 3-(4-((1H-tetrazol-1-yl)methyl)phenyl)-7-isopropyl-1H-indole-2-carboxylic acid]
IC50 (IMP-1 (Imipenemase-1)): 22.4 nM
IC50 [2]: 15.8 nM

CN(C)C(=O)c1ccc(-c2c(C(=O)O)[nH]c3c(C(C)(C)C)cccc23)cc1 [Example 92, 7-(tert-butyl)-3-(4-(dimethylcarbamoyl)phenyl)-1H-indole-2-carboxylic acid]
IC50 (IMP-1 (Imipenemase-1)): 79.4 nM
IC50 [2]: 53.7 nM
